Reference: paper PMC6831736, “Highly Variable Pharmacokinetics of Tyramine in Humans and Polymorphisms in OCT1, CYP2D6, and MAO-A” (Frontiers in Pharmacology, 2019)
Where two headings read alike, the source gives them in different places.

Columns and labels:
[1] = Pharmacokinetics of tyramine and its metabolite 4-HPAA in plasma and urine of healthy volunteers after oral administration of 400 mg tyramine
Protocol: In this open-label pharmacokinetic/pharmacodynamic study, pharmacokinetics and effects of 400 mg oral tyramine were analysed in relation to MAO-A, CYP2D6, and OCT1 genotypes in 88 healthy volunteers. Eighty percent of the participants were unselected volunteers from Göttingen area in Germany; the remaining 20% were selected from an internal database to enrich the study sample with rare OCT1 or CYP2D6 variants. With widely accepted statistical criteria (type I error of 0.05 and type II error of 0.2), at least 10 subjects with genetically defined very low activity of OCT1 or CYP2D6 and a similar or higher number without deficiency should be sufficient to confirm a relevant 50% change in tyramine plasma AUC as a result of genetic variation. Because of the very diverse and not pharmacokinetic-based literature data on the functional effects of MAO-A polymorphisms, no power calculation could be performed with regard to MAO-A genotypes. However, a sample size of nearly a hundred individuals should be sufficient to find genotypes with a population frequency of at least 5%. All volunteers gave their written informed consent before participation in the study. The study was approved by the ethics committee of the University of Göttingen. It was registered at the German Clinical Trials Registry and the World Health Organization International Clinical Trials Registry Platform (DRKS00008915; https://www.drks.de/DRKS00008915).
Plasma and urine concentrations of tyramine and 4-HPAA were analysed by HPLC with tandem mass spectrometry using tyramine-d4 (Santa Cruz Biotechnology, Inc., Dallas, TX, USA) as internal standard. GR 49336 (5-[[(methylamino)sulfonyl]methyl]-1H-indole-3-acetic acid; Santa Cruz Biotechnology, Inc.) was used as internal standard for 4-HPAA. The analytical standards for tyramine were obtained from Fluka (Morristown, NJ, USA) and for 4-HPAA from Sigma-Aldrich (Darmstadt, Germany). The limit of detection for tyramine was 0.1 ng/ml in plasma and 10 ng/ml in urine; for 4-HPAA, it was 5 ng/ml in plasma and 0.5 µg/ml in urine. The limit of quantification for tyramine was 0.25 ng/ml in plasma and 15 ng/ml in urine; for 4-HPAA, it was 15 ng/ml in plasma and 1.5 µg/ml in urine.
200 µl of plasma were precipitated in 1.5 ml Eppendorf tubes with 400 µl acetonitrile/methanol (9:1, v:v), including the internal standards. After 10 min on ice, tubes were centrifuged for 30 min at 13,000 rpm, and 300 µl of the supernatant were transferred to a microtiter plate. The supernatant was evaporated using nitrogen and re-dissolved in 0.1% formic acid. 10 µl were injected into the HPLC system. Chromatography was performed using a Shimadzu Nexera system with an API 4000 detector. Separation for analysis of tyramine and methyltyramine was performed at 40°C on a Brownlee SPP RP-Amide 100 x 4.6 mm, 2.7 µm particle size, column using water with 0.1% (v/v) formic acid, 2.57% acetonitrile, and 0.43% methanol as eluent. Detection (positive mode) of tyramine was based on the masses 139.1/121.1 and for tyramine-d4 on 142.0/125.0. Calibration range was 0.5 to 200 µg/l with coefficients of variation of 4.6%, 2.8%, and 2.6% at 2, 20, and 150 µg/l, respectively. Analysis of 4-HPAA was performed on the same system, using 0.1% formic acid, 17.14% acetonitrile, and 2.86% methanol as eluent and detection in the negative mode based on the masses 151.0/107.2 for 4-HPAA and 281.2/142.1 for the internal standard. Calibration range was between 0.03 and 20 mg/l and coefficients of variation were 4.7%, 4.2%, and 3.7% at 1, 5, and 15 mg/l.
Pharmacokinetic parameters were calculated by non-compartmental analysis using Phoenix 64 WinNonlin version 6 (Certara USA, Inc., Princeton NJ, USA). AUCinf of tyramine was calculated from time of dosing using the linear/log trapezoidal rule, and extrapolated to inﬁnity based on the last predicted concentration and using the terminal elimination rate constant (lambda z).

healthy volunteers [2] = settings: in vivo
Protocol: (§1) To avoid interference by dietary tyramine, food and drink (including alcohol) consumption was prohibited from the evening before the study day until the last blood and urine sampling, except for water at any time and bread with butter 3 h before and 3 h after tyramine administration. A medical examination and electrocardiogram measurement were conducted 3 h prior to tyramine administration. Blood samples were drawn 3 h before and at the following times after tyramine intake: 15, 30, and 45 min as well as 1, 1.5, 2, 2.5, 3, 4, and 6 h. Urine samples were taken from 3 h to 10 min before tyramine administration as well as from 0 to 3 h and from 3 to 6 h after. Blood samples were centrifuged (10 min, 4°C, 4,000 rpm) and plasma and urine samples were stored at −20°C until analysis. Blood pressure and heart rate were measured 3 h, 35 min, and 10 min before tyramine administration, and subsequently in 15 min intervals until 6 h after. In a subgroup of eight participants, blood pressure was continuously monitored based on an analysis of pulse pressure curves using the SOMNOtouch™ NIPB non-invase system (SOMNOmedics GmbH, Randersacker, Germany). An orthostatic blood pressure test was performed 10 min before as well as 30 min and 1.5 h after tyramine intake. Pupillometry was performed 35 min prior to, and 1, 2, and 6 h after tyramine administration. Participants were asked to report on symptoms possibly related to tyramine (headache, fatigue, sleepiness, visual or hearing impairments, restlessness, nausea, dizziness, dry mouth, tremor, sensation of cold, and heart palpitation) using visual analogue scales 3 h before and 1, 3, and 6 h after tyramine intake.
(§2) The primary endpoint was the AUC of tyramine in plasma. Secondary endpoints were the other pharmacokinetic parameters of tyramine and its metabolite 4-HPAA, as well as heart rate, blood pressure, pupil size effects, and possible adverse events (headache, fatigue, visual or hearing impairments, restlessness, nausea, dizziness, dry mouth, tremor, hypothermia, heart palpitations). In addition, the cumulative amounts of tyramine and 4-HPAA excreted in urine were measured over time periods of 3 h before (baseline) and 6 h after application.

[3] = tested on: organic cation transporter 1 (OCT1, or SLC22A1); design: method as in Breidert et al., 1998; settings: ref Breidert et al., 1998; cited from earlier work
[4] = design: method as in earlier work; settings: fasting state; upwards; ref VanDenBerg et al., 2003; Di Stefano et al., 2013; Gillman, 2018; cited from earlier work
healthy volunteers [5] = assay: Blood pressure and heart rate effects after 400 mg oral tyramine; type: in vivo, human
Description: Purity was confirmed by HPLC.

healthy volunteers [6] = assay: Adverse events, adverse symptoms (visual analogue scales) and pupillometry after 400 mg oral tyramine
Protocol: as §1, §2

[7] = human, in vivo, po, 400 mg, t max
[8] = human, in vivo, po, 400 mg, tmax, range

Q: For `CNCCc1ccc(O)cc1` [N-methyltyramine], which “Plasma and urine concentrations” value ([1]; 400 mg oral tyramine, below the limit of detection) is on record?
A: The value was less than 1 ng/mL.

Q: Which “Baseline recovery in the urine cumulated for 3 h prior to tyramine administration” value ([1]; human, in vivo) does the source give for `O=C(O)Cc1ccc(O)cc1` [4-HPAA, 4-hydroxyphenylacetic acid] here?
A: The value was 2.65 (0.67–9.05) mg.

Q: And the concentration at -3 h ([1]; human, in vivo)?
A: The concentration at -3 h was 70 ng/mL.

Q: And the “participants with baseline plasma concentration below the limit of quantification” value ([1]; human, in vivo, -3 h)?
A: Its value is 84%.

Q: And the “dose recovered in urine in form of 4-HPAA” value ([1]; human, in vivo, po)?
A: Its value is 76.8%.

Q: And the CL renal ([1]; human, in vivo, po, 400 mg)?
A: Its CL renal is 240 mL/min.

Q: What about the Cmax ([1]; human, in vivo, po, 400 mg) of the same compound?
A: The Cmax was 9040 ng/mL.

Q: And the half-life ([1]; human, in vivo, po, 400 mg)?
A: Its half-life is 1.22 h.

Q: And the “variation of 4-HPAA systemic exposure (plasma AUC)” value ([1]; human, in vivo, po, 400 mg)?
A: Its value is “up to 3 fold”.

Q: What about the AUC(0-inf) ([1]; human, in vivo, po, 400 mg, AUC inf) of the same compound?
A: The AUC(0-inf) was 21600 ng·h/mL.

Q: And the Tmax [1, 7]?
A: Its Tmax is 1.47 h.

Q: And the Tmax [1, 8]?
A: The Tmax was 0.483 to 2.5 h.

Q: What about the “correlation of systemic concentration with dizziness” value (healthy volunteers [2]) of the same compound?
A: The value was “positively”.

Q: And the “correlation of systemic concentration with dry mouth” value (healthy volunteers [2])?
A: Its value is “weakly”.

Q: And the “correlation of systemic concentration with headache” value (healthy volunteers [2])?
A: The value was “positively”.

Q: What about the “correlation of systemic concentration with heart palpitation” value (healthy volunteers [2]) of the same compound?
A: Its value is “positively”.

Q: Which OCT1 substrate affinity [3] does the source give for `NCCc1ccc(O)cc1` [Tyramine, tyramine] here?
A: The OCT1 substrate affinity was “substrate with nanomolar affinity”.

Q: And the “oral tyramine dose at which the pressor response occurs” value [4]?
A: Its value is no less than 200 mg.

Q: And the AUC(0-inf) ([1]; female, human, in vivo, po, 400 mg)?
A: The AUC(0-inf) was 0.19 µM·h.

Q: What about the AUC(0-inf) ([1]; female, human, in vivo, po, 400 mg, Mean plasma AUCinf) of the same compound?
A: Its AUC(0-inf) is 0.528 µM·h.

Q: And the “Baseline recovery in the urine cumulated for 3 h prior to tyramine administration” value ([1]; human, in vivo)?
A: The value was 0.055 (0.007–0.222) mg.

Q: What about the “effect of MAO-A genotypes on tyramine pharmacokinetics or its metabolism to 4-HPAA” value ([1]; human, in vivo) of the same compound?
A: Its value is “no significant effects”.

Q: And the “effect of polymorphisms in OCT1 and CYP2D6 on tyramine pharmacokinetics or pharmacodynamics” value ([1]; human, in vivo)?
A: The value was “did not significantly affect”.

Q: What about the Baseline plasma concentration ([1]; human, in vivo, -3 h) of the same compound?
A: The Baseline plasma concentration was 0.39 (0.25 & 0.53) ng/ml.

Q: What about the “participants with baseline plasma concentration below the limit of quantification” value ([1]; human, in vivo, -3 h) of the same compound?
A: Its value is 98%.

Q: What about the bioavailability ([1]; human, in vivo, po) of the same compound?
A: Its bioavailability is less than 1%.

Q: And the AUC(0-inf) ([1]; human, in vivo, po, 400 mg)?
A: Its AUC(0-inf) is 62.3 ng·h/mL.

Q: And the CL renal ([1]; human, in vivo, po, 400 mg)?
A: Its CL renal is 260 mL/min.

Q: What about the Cmax ([1]; human, in vivo, po, 400 mg) of the same compound?
A: The Cmax was 87 ng/mL.

Q: What about the half-life ([1]; human, in vivo, po, 400 mg) of the same compound?
A: The half-life was 0.917 h.

Q: What about the Tmax [1, 7] of the same compound?
A: Its Tmax is 0.767 h.

Q: What about the Tmax [1, 8] of the same compound?
A: The Tmax was 0.217 to 2 h.

Q: And the “correlation of rise in systolic blood pressure with systemic tyramine concentration” value (healthy volunteers [5]; 400 mg oral tyramine)?
A: Its value is “correlated strongly”.

Q: What about the “participants with blood pressure peaks by >40 mmHg above baseline” value (healthy volunteers [5]; 400 mg oral tyramine) of the same compound?
A: The value was “less than 10%”.

Q: And the “participants with increases in systolic blood pressure less than 40 mmHg” value (healthy volunteers [5]; 400 mg oral tyramine)?
A: Its value is 90%.

Q: And the “tyramine concentrations at which blood pressure peaks by >40 mmHg above baseline were observed” value (healthy volunteers [5]; 400 mg oral tyramine)?
A: The value was greater than 60 µg/L.

Q: What about the “volunteers with systolic blood pressure increased by more than 10 mmHg” value (healthy volunteers [5]; 400 mg oral tyramine) of the same compound?
A: The value was 71%.

Q: And the “tyramine plasma concentration at which diastolic blood pressure increased” value (healthy volunteers [5]; concentration-effect analyses)?
A: The value was “higher than 100 µg/l”.

Q: And the “tyramine plasma concentration at which systolic blood pressure rises” value (healthy volunteers [5]; concentration-effect analyses, and above)?
A: Its value is no less than 60 µg/L.

Q: What about the “time of blood pressure reaction after tyramine administration” value (healthy volunteers [5]; one participant, much delayed) of the same compound?
A: Its value is 90 min.

Q: And the serious adverse events (healthy volunteers [6]; 400 mg oral tyramine, 88 healthy volunteers)?
A: The serious adverse events was “no serious adverse events”.

Q: And the “pupil size and pupil reaction to light before and after tyramine administration” value (healthy volunteers [6]; repeated pupillometric analyses)?
A: The value was “no difference”.

Q: And the “correlation of systemic concentration with heart palpitation” value (healthy volunteers [6]; visual analogue scales, two-tailed, p < 0.001)?
A: The value was “Positive correlations”.

Q: And the “correlation of systemic concentration with inner restlessness” value (healthy volunteers [6]; visual analogue scales, two-tailed, p = 0.02)?
A: Its value is “Positive correlations”.
